# US9932637B2, “Genetic polymorphisms associated with cardiovascular disorders and drug response, methods of detection and uses thereof” (CELERA CORPORATION, priority 2003, dated 2018)
# Several values for one entry are separate records, joined by “and”; a condition that tells them apart may be missing. Equal entries are not always repeated.
# Test system: patients with prior myocardial infarction (CARE study)
# Assay: CARE aligned analysis (prospective and case/control design, white males): association of genotypes with pravastatin efficacy (Tables 13, 15)
# Type: in vivo, human
# Settings: for Pravastatin Patients n/total / Pravastatin Patients (%) / 2 Rare Alleles (%), Pravastatin Patients: F&NF MI; for Pravastatin Patients n/total / Pravastatin Patients (%): WM; for Pravastatin vs placebo odds ratio, 0 rare alleles / Pravastatin vs placebo odds ratio, 1 rare allele / Pravastatin vs placebo odds ratio, 2 rare alleles / 2 rare alleles n/total (%), pravastatin patients: CARE, F MI/SD/NF MI; for Pravastatin vs. Placebo Odds Ratio (95% CI), Patients with 0 Rare Alleles / n/total (%) cases, Pravastatin Patients, 0 Rare Alleles: PON1 hCV2548962, 0 rare alleles; for Pravastatin vs. Placebo Odds Ratio (95% CI), Patients with 0 Rare Alleles / n/total (%) cases, Pravastatin Patients, 0 Rare Alleles / Pravastatin vs. Placebo Odds Ratio (95% CI), Patients with 1 Rare Allele / n/total (%) cases, Pravastatin Patients, 1 Rare Allele / Pravastatin vs. Placebo Odds Ratio (95% CI), Patients with 2 Rare Alleles / n/total (%) cases, Pravastatin Patients, 2 Rare Alleles: White Males; for Pravastatin vs. Placebo Odds Ratio (95% CI), Patients with 1 Rare Allele / n/total (%) cases, Pravastatin Patients, 1 Rare Allele: PON1 hCV2548962, 1 rare allele
# Description: The data presented in Table 8 based on an association of genotypes with pravastatin efficacy of the CARE samples were further analyzed and presented in Table 13. The further analysis was performed to align the data obtained from the analysis of the CARE samples, which was a prospective study, to the analysis of the WOSCOP samples, which was a case/control study. Table 13 also presents an analysis of the association of genotypes with pravastatin efficacy in the WOSCOPs samples. Relative to the analysis performed on the data presented in Table 8, there are two significant differences to determine if the SNP influenced pravastatin efficacy. Data obtained from the CARE samples were separated by study design into two groups, those in the prospective study design group and those in the case/control study design group. The original care study contained 16 protocol defined cardiovascular disease defined endpoints and 150 other phenotypes. […] The control groups used to compare the data were also divided into two groups, the “all possible” control group and the “cleaner” control group. […] Because the participants in the WOSCOPs trial were all white males, only data obtained from white males in the CARE study were analysed. Data from the “all possible” and “cleaner” controls were compared to data obtained from the cases in the prospective study design while only data from “cleaner” controls were compared to cases in the case/control study design. The data from the case/control cohorts were analysed using conditional logistic regression (as opposed to logistic regression used for the original anaylsis).
# The anaylsis was refined as described for both Tables 13 and 14.
# [1] = NPC1 hCV7490135, 0 Rare Alleles, CARE Prospective, Cleaner controls
# [2] = NPC1 hCV7490135, 1 Rare Allele, CARE Prospective, Cleaner controls
# [3] = NPC1 hCV25472673, 0 Rare Alleles, CARE Case/Control, Cleaner controls
# [4] = NPC1 hCV25472673, 0 Rare Alleles, CARE Prospective, Cleaner controls
# [5] = NPC1 hCV25472673, 1 Rare Allele, CARE Case/Control, Cleaner controls
# [6] = NPC1 hCV25472673, 1 Rare Allele, CARE Prospective, Cleaner controls
# [7] = PLAB hCV7494810, 0 Rare Alleles, CARE Case/Control, All Possible controls
# [8] = PLAB hCV7494810, 0 Rare Alleles, CARE Case/Control, Cleaner controls
# [9] = PLAB hCV7494810, 0 Rare Alleles, CARE Prospective, All Possible controls
# [10] = PLAB hCV7494810, 1 Rare Allele, CARE Case/Control, All Possible controls
# [11] = PLAB hCV7494810, 1 Rare Allele, CARE Case/Control, Cleaner controls
# [12] = PLAB hCV7494810, 1 Rare Allele, CARE Prospective, All Possible controls
# [13] = PLAB hCV7494810, Case/Control, listed as Pravastatin
# [14] = PLAB hCV7494810, Prospective, listed as Pravastatin
# [15] = CARE Case/Control, Fatal & Nonfatal MI, Cleaner controls
# [16] = CARE Prospective, Fatal & Nonfatal MI, Cleaner controls
# [17] = CARE Prospective, Total CHD Events, All Possible controls
# [18] = PON1 hCV2548962, 2 rare alleles, CARE Case/Control, Fatal & Nonfatal MI, Cleaner controls
# [19] = PON1 hCV2548962, 2 rare alleles, CARE Prospective, Fatal & Nonfatal MI, Cleaner controls
smiles,measurement,setting,value
CC[C@H](C)C(=O)O[C@H]1C[C@H](O)C=C2C=C[C@H](C)[C@H](CC[C@@H](O)C[C@@H](O)CC(=O)O)[C@H]21 [pravastatin],Pravastatin Patients n/total,"NOS3 hCV3219460, 1 Rare Allele, CARE Prospective, Cleaner controls",64/366
same,"Pravastatin vs placebo odds ratio, 0 rare alleles","NOS3 hCV3219460, Case/Control",0.76 and 0.67
same,"Pravastatin vs placebo odds ratio, 1 rare allele","NOS3 hCV3219460, Case/Control",1.04 and 0.98
same,"Pravastatin vs placebo odds ratio, 2 rare alleles","NOS3 hCV3219460, Case/Control",0.27 and 0.23
same,"Pravastatin vs placebo odds ratio, 0 rare alleles","NOS3 hCV3219460, Prospective",0.79 and 0.70
same,"Pravastatin vs placebo odds ratio, 1 rare allele","NOS3 hCV3219460, Prospective",1.04 and 0.95
same,"Pravastatin vs placebo odds ratio, 2 rare alleles","NOS3 hCV3219460, Prospective",0.27 and 0.22
same,Pravastatin Patients (%),[1],(18.3%)
same,Pravastatin Patients n/total,[1],44/240
same,Pravastatin Patients (%),[2],(13.7%)
same,Pravastatin Patients n/total,[2],56/408
same,"2 Rare Alleles (%), Pravastatin Patients","NPC1 hCV7490135, CARE Prospective",(13.8%)
same,Pravastatin Patients (%),[3],(17.4%)
same,Pravastatin Patients n/total,[3],53/304
same,Pravastatin Patients (%),[4],(17.3%)
same,Pravastatin Patients n/total,[4],53/307
same,Pravastatin Patients (%),[5],(13.5%)
same,Pravastatin Patients n/total,[5],51/378
same,Pravastatin Patients (%),[6],(13.2%)
same,Pravastatin Patients n/total,[6],51/386
same,"2 Rare Alleles (%), Pravastatin Patients","NPC1 hCV25472673, CARE Case/Control",(15.0%)
same,"2 Rare Alleles (%), Pravastatin Patients","NPC1 hCV25472673, CARE Prospective",(14.7%)
same,"2 rare alleles n/total (%), pravastatin patients","NPC1 hCV25472673, Case/Control",(12.6%)
same,"Pravastatin vs placebo odds ratio, 0 rare alleles","NPC1 hCV25472673, Case/Control",1.21
same,"Pravastatin vs placebo odds ratio, 1 rare allele","NPC1 hCV25472673, Case/Control",0.65
same,"Pravastatin vs placebo odds ratio, 2 rare alleles","NPC1 hCV25472673, Case/Control",0.34
same,"2 rare alleles n/total (%), pravastatin patients","NPC1 hCV25472673, Prospective",(8.7%)
same,"Pravastatin vs placebo odds ratio, 0 rare alleles","NPC1 hCV25472673, Prospective",1.25
same,"Pravastatin vs placebo odds ratio, 1 rare allele","NPC1 hCV25472673, Prospective",0.71 and 0.62
same,"Pravastatin vs placebo odds ratio, 2 rare alleles","NPC1 hCV25472673, Prospective",0.49 and 0.34
same,Pravastatin Patients (%),[7],(12.2%)
same,Pravastatin Patients n/total,[7],84/691
same,Pravastatin Patients (%),[8],(17.5%)
same,Pravastatin Patients n/total,[8],84/481
same,Pravastatin Patients (%),[9],(11.9%)
same,Pravastatin Patients n/total,[9],84/706
same,Pravastatin Patients (%),[10],(8.5%)
same,Pravastatin Patients n/total,[10],38/448
same,Pravastatin Patients (%),[11],(12.6%)
same,Pravastatin Patients n/total,[11],38/302
same,Pravastatin Patients (%),[12],(8.4%)
same,Pravastatin Patients n/total,[12],38/455
same,"2 Rare Alleles (%), Pravastatin Patients","PLAB hCV7494810, CARE Prospective",(6.9%)
same,"2 rare alleles n/total (%), pravastatin patients","PLAB hCV7494810, Case/Control",(8.3%)
same,"Pravastatin vs placebo odds ratio, 0 rare alleles","PLAB hCV7494810, Case/Control",0.95
same,"Pravastatin vs placebo odds ratio, 0 rare alleles",[13],1.03
same,"Pravastatin vs placebo odds ratio, 1 rare allele",[13],0.50 and 0.44
same,"Pravastatin vs placebo odds ratio, 2 rare alleles",[13],1.62 and 1.45
same,"2 rare alleles n/total (%), pravastatin patients","PLAB hCV7494810, Prospective",(8.3%)
same,"Pravastatin vs placebo odds ratio, 0 rare alleles","PLAB hCV7494810, Prospective",0.93
same,"Pravastatin vs placebo odds ratio, 0 rare alleles",[14],1.03
same,"Pravastatin vs placebo odds ratio, 1 rare allele",[14],0.52 and 0.46
same,"Pravastatin vs placebo odds ratio, 2 rare alleles",[14],1.61 and 1.24
same,"Pravastatin vs. Placebo Odds Ratio (95% CI), Patients with 0 Rare Alleles",[15],0.84 (0.58 to 1.22)
same,"n/total (%) cases, Pravastatin Patients, 0 Rare Alleles",[15],67/416 (16.1%)
same,"Pravastatin vs. Placebo Odds Ratio (95% CI), Patients with 0 Rare Alleles",[16],0.81 (0.56 to 1.16)
same,"n/total (%) cases, Pravastatin Patients, 0 Rare Alleles",[16],67/423 (15.8%)
same,"Pravastatin vs. Placebo Odds Ratio (95% CI), Patients with 0 Rare Alleles",[17],0.77 (0.61 to 0.98)
same,"n/total (%) cases, Pravastatin Patients, 0 Rare Alleles",[17],183/613 (29.9%)
same,"Pravastatin vs. Placebo Odds Ratio (95% CI), Patients with 1 Rare Allele",[15],0.63 (0.42 to 0.95)
same,"n/total (%) cases, Pravastatin Patients, 1 Rare Allele",[15],50/335 (14.9%)
same,"Pravastatin vs. Placebo Odds Ratio (95% CI), Patients with 1 Rare Allele",[16],0.64 (0.31 to 1.36)
same,"n/total (%) cases, Pravastatin Patients, 1 Rare Allele",[16],50/340 (14.7%)
same,"Pravastatin vs. Placebo Odds Ratio (95% CI), Patients with 1 Rare Allele",[17],0.94 (0.58 to 1.54)
same,"n/total (%) cases, Pravastatin Patients, 1 Rare Allele",[17],151/504 (30.0%)
same,ORs of fatal or non-fatal MI when treated with pravastatin,"PON1 hCV2548962, 2 rare alleles, CARE and WOSCOPs sample sets",0.28-0.34
same,"Pravastatin vs. Placebo Odds Ratio (95% CI), Patients with 2 Rare Alleles",[18],0.29 (0.12 to 0.71)
same,"n/total (%) cases, Pravastatin Patients, 2 Rare Alleles",[18],9/79 (11.4%)
same,"Pravastatin vs. Placebo Odds Ratio (95% CI), Patients with 2 Rare Alleles",[19],0.32 (0.11 to 0.95)
same,"n/total (%) cases, Pravastatin Patients, 2 Rare Alleles",[19],9/80 (11.3%)
same,"Pravastatin vs. Placebo Odds Ratio (95% CI), Patients with 2 Rare Alleles","PON1 hCV2548962, 2 rare alleles, CARE Prospective, Total CHD Events, All Possible controls",0.28 (0.13 to 0.60)
